Reference: PMC7395068, “The evolution of strategies to minimise the risk of human drug-induced liver injury (DILI) in drug discovery and development” (Archives of Toxicology, 2020)
Where two headings read alike, the source gives them in different places. Values belong to the compound of their own block, whether it stands above or below them.

Experiments:
[1] = plasma free fraction; cited from earlier work
[2] = Plasma free fraction (fu) and unbound Cmax (Cmax,u); format: in vitro ADME, human; conditions: unbound plasma Cmax
PHH = conditions: cited from earlier work
[3] = cited from earlier work
hLiMTs [4] = experiment: Combined HCI (HCS) and cellular ATP 3D assay in hLiMTs; conditions: for AC50 / minimal effective concentration: Homo sapiens; for DILI prediction hLiMTs (HCS-MEC): Microtissue model structural based (HCI), combined HCS and ATP, MEC < 25 × Cmax.tot cut-off; for hLiMTs <25x Avg Cmax ATP / hLiMTs <100x Avg Cmaxu ATP: ATP endpoint; for hLiMTs <25x Avg Cmax ATP / hLiMTs <25x Avg Cmax HCS / hLiMTs <25x Avg Cmax All: cut-off <25x Avg Cmax; for hLiMTs <100x Avg Cmaxu ATP / hLiMTs <100x Avg Cmaxu HCS / hLiMTs <100x Avg Cmaxu All: cut-off <100x Avg Cmaxu; for hLiMTs <25x Avg Cmax HCS / hLiMTs <100x Avg Cmaxu HCS: HCS endpoints; for hLiMTs <25x Avg Cmax All: all endpoints (ATP and HCS); for hLiMTs Cmax max All / hLiMTs Cmax min All / hLiMTs <10 uM All / hLiMTs <100x Avg Cmaxu All: all endpoints; for hLiMTs Cmax max All: Cmax max used; for hLiMTs Cmax min All: Cmax min used; for hLiMTs <10 uM All: cut-off <10 uM
PHH spheroids = conditions: cited from earlier work
hLiMTs [5] = conditions: cited from earlier work
[6] = system: isolated mouse liver mitochondria; conditions: In vitro Assay; ref Porceddu 2012; cited from earlier work
[7] = cited from earlier work; remark: listed apart in the source
human hepatocytes = conditions: cited from earlier work
HepaRG spheroids = experiment: Combined HCI (HCS) and cellular ATP 3D assay in HepaRG spheroids; conditions: for HepaRG <25x Avg Cmax ATP / HepaRG <100x Avg Cmaxu ATP: ATP endpoint; for HepaRG <25x Avg Cmax ATP / HepaRG <25x Avg Cmax HCS / HepaRG <25x Avg Cmax All: cut-off <25x Avg Cmax; for HepaRG <100x Avg Cmaxu ATP / HepaRG <100x Avg Cmaxu HCS / HepaRG <100x Avg Cmaxu All: cut-off <100x Avg Cmaxu; for HepaRG <25x Avg Cmax HCS / HepaRG <100x Avg Cmaxu HCS: HCS endpoints; for HepaRG <25x Avg Cmax All: all endpoints (ATP and HCS); for HepaRG Cmax max All / HepaRG Cmax min All / HepaRG <10 uM All / HepaRG <100x Avg Cmaxu All: all endpoints; for HepaRG Cmax max All: Cmax max used; for HepaRG Cmax min All: Cmax min used; for HepaRG <10 uM All: cut-off <10 uM; for AC50 / minimal effective concentration: Homo sapiens; for HepaRG <25x Avg Cmax ATP / HepaRG <100x Avg Cmaxu ATP / HepaRG <25x Avg Cmax HCS / HepaRG <100x Avg Cmaxu HCS / HepaRG <25x Avg Cmax All / HepaRG Cmax max All / HepaRG Cmax min All / HepaRG <10 uM All / HepaRG <100x Avg Cmaxu All / AC50 / minimal effective concentration: HepaRG; for DILI prediction HepaRG spheroids (HCS-MEC): Microtissue model structural based (HCI), combined HCS and ATP, MEC < 25 × Cmax.tot cut-off
[8] = system: HepG2 C3A spheroid, BSEP, Glu/Gal in HepG2 cells, bioactivation; conditions: cited from earlier work
[9] = system: THLE or HepG2 cells, isolated mitochondria, BSEP; conditions: cited from earlier work
[10] = system: HepG2 cells, primary human hepatocytes; conditions: In vitro Assay; ref Garside 2014; cited from earlier work
[11] = ref Chen 2011; cited from earlier work
[12] = In vitro Assay, ref Proctor 2017
[13] = Modeled in vitro assays (cytotoxicity, mitochondrial dysfunction, BSEP), ref Aleo et al. 2019

Human plasma Cmax,u [2]: 1 nM | hLiMTs <25x Avg Cmax ATP (hLiMTs [4]): -ve | hLiMTs <100x Avg Cmaxu ATP (hLiMTs [4]): -ve | hLiMTs <25x Avg Cmax HCS (hLiMTs [4]): -ve | hLiMTs <100x Avg Cmaxu HCS (hLiMTs [4]): -ve | hLiMTs <25x Avg Cmax All (hLiMTs [4]): -ve | hLiMTs Cmax max All (hLiMTs [4]): -ve | hLiMTs Cmax min All (hLiMTs [4]): -ve | hLiMTs <10 uM All (hLiMTs [4]): +ve (<10 uM) | hLiMTs <100x Avg Cmaxu All (hLiMTs [4]): -ve | HepaRG <25x Avg Cmax ATP (HepaRG spheroids): -ve | HepaRG <100x Avg Cmaxu ATP (HepaRG spheroids): -ve | HepaRG <25x Avg Cmax HCS (HepaRG spheroids): -ve | HepaRG <100x Avg Cmaxu HCS (HepaRG spheroids): -ve | HepaRG <25x Avg Cmax All (HepaRG spheroids): -ve | HepaRG Cmax max All (HepaRG spheroids): -ve | HepaRG Cmax min All (HepaRG spheroids): -ve | HepaRG <10 uM All (HepaRG spheroids): -ve | HepaRG <100x Avg Cmaxu All (HepaRG spheroids): -ve
Structure (SMILES): CCN(CC)CC#CCOC(=O)C(O)(c1ccccc1)C1CCCCC1 (stereo not drawn) [oxybutynin]
fu [1]: 0.030 | PHH ATP <100uM (PHH): -VE | PHH/100uM, Proctor (2017) (PHH): -VE | DILI +VE (5-8), DILI -VE (-4) ([3]; in vivo): -VE | DILI severity category (Chen et al. [2016]) ([3]; in vivo): No | AC50 (hLiMTs [4]; read-out: HCS endpoint AC50): 6.06 µM | minimal effective concentration (hLiMTs [4]; read-out: HCS endpoint MEC): 2.11 µM | DILI prediction hLiMTs (HCS-MEC) (hLiMTs [4]): -VE | hLiMTs ATP <20 x Cmax (PHH spheroids; In vitro Assay, ref Vorrink 2018): -VE | DILI in vitro assay prediction, Vorrink (2018) (PHH spheroids): -VE | hLiMTs ATP <100uM (hLiMTs [5]): -VE | hLiMTs/100uM, Proctor (2017) (hLiMTs [5]): -VE | in vitro data EC2<=1x Cmax [6]: -VE | Assigned DILI category ([7]; in vivo): 1 | In vivo DILI ([7]; in vivo): -VE | DILI in vitro assay prediction, Xu (2008) (human hepatocytes): -VE | Structural based (HCI) (human hepatocytes): -VE | AC50 (HepaRG spheroids; read-out: ATP endpoint AC50): 28.5 µM | minimal effective concentration (HepaRG spheroids; read-out: ATP endpoint MEC): 16.1 µM | AC50 (HepaRG spheroids; read-out: HCS endpoint AC50): 64.5 µM | minimal effective concentration (HepaRG spheroids; read-out: HCS endpoint MEC): 10.3 µM | DILI prediction HepaRG spheroids (HCS-MEC) (HepaRG spheroids): -VE | Bayesian Machine Learning DILI prediction, Williams (2019) [8]: -VE | Rule of Two hybrid HRM Score ≥8, Aleo (2019) [9]: -VE

Human plasma Cmax,u [2]: 3 nM | hLiMTs <25x Avg Cmax ATP (hLiMTs [4]): +ve | hLiMTs <100x Avg Cmaxu ATP (hLiMTs [4]): -ve | hLiMTs <25x Avg Cmax HCS (hLiMTs [4]): +ve | hLiMTs <100x Avg Cmaxu HCS (hLiMTs [4]): +ve (<100x Avg Cmaxu) | hLiMTs <25x Avg Cmax All (hLiMTs [4]): +ve | hLiMTs Cmax max All (hLiMTs [4]): +ve | hLiMTs Cmax min All (hLiMTs [4]): +ve | hLiMTs <10 uM All (hLiMTs [4]): +ve (<10 uM) | hLiMTs <100x Avg Cmaxu All (hLiMTs [4]): +ve (<100x Avg Cmaxu) | HepaRG <25x Avg Cmax ATP (HepaRG spheroids): +ve | HepaRG <100x Avg Cmaxu ATP (HepaRG spheroids): -ve | HepaRG <25x Avg Cmax HCS (HepaRG spheroids): +ve | HepaRG <100x Avg Cmaxu HCS (HepaRG spheroids): +ve (<100x Avg Cmaxu) | HepaRG <25x Avg Cmax All (HepaRG spheroids): +ve | HepaRG Cmax max All (HepaRG spheroids): +ve | HepaRG Cmax min All (HepaRG spheroids): +ve | HepaRG <10 uM All (HepaRG spheroids): +ve (<10 uM) | HepaRG <100x Avg Cmaxu All (HepaRG spheroids): +ve (<100x Avg Cmaxu)
Structure (SMILES): CCN(CC)CCNC(=O)c1c(C)[nH]c(/C=C2\C(=O)Nc3ccc(F)cc32)c1C [sunitinib]
fu [1]: 0.050 | PHH/100xCmax, Proctor (2017) (PHH; 2D PHH, ATP, IC50 < 100 × Cmax.tot, ref Proctor et al. 2017): +VE (IC50 < 100 × Cmax.tot) | PHH/100uM, Proctor (2017) (PHH; 2D PHH, ATP, IC50 threshold 100 µM, ref Proctor et al. 2017): +VE (IC50 threshold of 100 µM) | PHH ATP <100uM (PHH; [12]): +VE (IC50 threshold of 100 µM) | DILI severity category (Chen et al. [2016]) ([3]; LTKB DILIrank category, ref Chen et al. 2016): Most | DILI severity category (Chen 2016) ([3]; human DILI classification, LTKB DILIrank, ref Chen et al. 2016): Most | DILI severity category ([3]; human DILI severity, ref Chen et al.): Most | DILI +VE (5-8), DILI -VE (-4) ([3]; ref Chen 2016): +VE | DILI severity category ([3]; ref Chen 2016): vMost-DILI-Concern | AC50 (hLiMTs [4]; read-out: ATP endpoint AC50): 0.4 µM | minimal effective concentration (hLiMTs [4]; read-out: ATP endpoint MEC): 0.347 µM | AC50 (hLiMTs [4]; read-out: HCS endpoint AC50): 0.421 µM | minimal effective concentration (hLiMTs [4]; read-out: HCS endpoint MEC): 0.157 µM | DILI prediction hLiMTs (HCS-MEC) (hLiMTs [4]): +VE (MEC < 25 × Cmax.tot cut-off) | hLiMTs ATP <100uM (hLiMTs [5]; [12]): +VE (IC50 threshold of 100 µM) | hLiMTs/100xCmax, Proctor (2017) (hLiMTs [5]; hLiMTs, ATP, IC50 < 100 × Cmax.tot, ref Proctor et al. 2017): +VE (IC50 < 100 × Cmax.tot) | hLiMTs/100uM, Proctor (2017) (hLiMTs [5]; hLiMTs, ATP, IC50 threshold 100 µM, ref Proctor et al. 2017): +VE (IC50 threshold of 100 µM) | in vitro data EC2<=1x Cmax [6]: +VE | in vitro data EC20<=2uM [6]: -VE | Assigned DILI category ([7]; Chen et al. 2016 or literature alignment, ref Chen et al. 2016): 3 | In vivo DILI ([7]; ref Aleo 2019): +VE | In vivo DILI ([7]; ref Garside 2014): +VE | In vivo DILI ([7]; ref Porceddu 2012): +VE | In vivo DILI ([7]; ref Proctor 2017): +VE | In vivo DILI ([7]; ref Williams 2019): +VE | AC50 (HepaRG spheroids; read-out: ATP endpoint AC50): 3.11 µM | minimal effective concentration (HepaRG spheroids; read-out: ATP endpoint MEC): 1.1 µM | AC50 (HepaRG spheroids; read-out: HCS endpoint AC50): 1.71 µM | minimal effective concentration (HepaRG spheroids; read-out: HCS endpoint MEC): 0.281 µM | DILI prediction HepaRG spheroids (HCS-MEC) (HepaRG spheroids): +VE (MEC < 25 × Cmax.tot cut-off) | Cluster 1-6 +VE Assay [10]: +VE | Bayesian Machine Learning DILI prediction, Williams (2019) ([8]; Bayesian modeling, ref Williams et al. 2019): +VE | Bayesian Machine Learning ([8]; In vitro Assay, ref Williams 2019): +VE | DILI Score (FDA) (1-8) [11]: 8 | Partition Hybrid HRM Score ([9]; In vitro Assay, ref Aleo 2019): -VE | Ro2 Hybrid HRM Score ([9]; In vitro Assay, ref Aleo 2019): -VE | Partition Hybrid HRM Score ≥4, Aleo (2019) [9, 13]: +VE (Partition Hybrid HRM Score ≥4) | Partition Hybrid HRM Score ≥8, Aleo (2019) [9, 13]: -VE | Rule of Two hybrid HRM Score ≥3, Aleo (2019) [9, 13]: -VE | Rule of Two hybrid HRM Score ≥8, Aleo (2019) [9, 13]: -VE
